Reference: ChEMBL document CHEMBL5465560, “Selectivity Literature for EUbOPEN Chemogenomic Library” (2024)
One block for each compound: values may come before it.

Experiments:
[1] = target: Serine/threonine-protein kinase/endoribonuclease IRE1 (Homo sapiens) (UniProt O75460); assay: Selectivity interaction (KinomeScan (DiscoverX)) EUB0000607a ERN1; details: at 10 µM
[2] = target: Cyclin-dependent kinase 16 (Homo sapiens) (UniProt Q00536); assay: Selectivity interaction (ActivX KiNativ screen (kinase selectivity in THP-1 cell lysates)) EUB0000639a CDK16; format: subcellular; details: lysate, at 0.04 µM
[3] = target: Maternal embryonic leucine zipper kinase (Homo sapiens) (UniProt Q14680); assay: Selectivity interaction (Kinase panel (Invitrogen)) EUB0000639a MELK; details: at 200 nM
[4] = target: ALK tyrosine kinase receptor (Homo sapiens, UniProt Q9UM73); assay: Selectivity interaction (KinaseProfiler screening (Millipore)) EUB0000601a ALK; details: at 3 µM
[5] = target: SRSF protein kinase 1 (Homo sapiens, UniProt Q96SB4); assay: Selectivity interaction (Kinase panel (DSF assay)) EUB0001558a SRPK1
[6] = target: T1, Serine/threonine-protein kinase Nek1 (Homo sapiens) (UniProt Q96PY6); assay: Selectivity interaction (KinomeScan (DiscoverX)) EUB0000655a NEK1; details: at 10 µM
T1 sequence (whole entry): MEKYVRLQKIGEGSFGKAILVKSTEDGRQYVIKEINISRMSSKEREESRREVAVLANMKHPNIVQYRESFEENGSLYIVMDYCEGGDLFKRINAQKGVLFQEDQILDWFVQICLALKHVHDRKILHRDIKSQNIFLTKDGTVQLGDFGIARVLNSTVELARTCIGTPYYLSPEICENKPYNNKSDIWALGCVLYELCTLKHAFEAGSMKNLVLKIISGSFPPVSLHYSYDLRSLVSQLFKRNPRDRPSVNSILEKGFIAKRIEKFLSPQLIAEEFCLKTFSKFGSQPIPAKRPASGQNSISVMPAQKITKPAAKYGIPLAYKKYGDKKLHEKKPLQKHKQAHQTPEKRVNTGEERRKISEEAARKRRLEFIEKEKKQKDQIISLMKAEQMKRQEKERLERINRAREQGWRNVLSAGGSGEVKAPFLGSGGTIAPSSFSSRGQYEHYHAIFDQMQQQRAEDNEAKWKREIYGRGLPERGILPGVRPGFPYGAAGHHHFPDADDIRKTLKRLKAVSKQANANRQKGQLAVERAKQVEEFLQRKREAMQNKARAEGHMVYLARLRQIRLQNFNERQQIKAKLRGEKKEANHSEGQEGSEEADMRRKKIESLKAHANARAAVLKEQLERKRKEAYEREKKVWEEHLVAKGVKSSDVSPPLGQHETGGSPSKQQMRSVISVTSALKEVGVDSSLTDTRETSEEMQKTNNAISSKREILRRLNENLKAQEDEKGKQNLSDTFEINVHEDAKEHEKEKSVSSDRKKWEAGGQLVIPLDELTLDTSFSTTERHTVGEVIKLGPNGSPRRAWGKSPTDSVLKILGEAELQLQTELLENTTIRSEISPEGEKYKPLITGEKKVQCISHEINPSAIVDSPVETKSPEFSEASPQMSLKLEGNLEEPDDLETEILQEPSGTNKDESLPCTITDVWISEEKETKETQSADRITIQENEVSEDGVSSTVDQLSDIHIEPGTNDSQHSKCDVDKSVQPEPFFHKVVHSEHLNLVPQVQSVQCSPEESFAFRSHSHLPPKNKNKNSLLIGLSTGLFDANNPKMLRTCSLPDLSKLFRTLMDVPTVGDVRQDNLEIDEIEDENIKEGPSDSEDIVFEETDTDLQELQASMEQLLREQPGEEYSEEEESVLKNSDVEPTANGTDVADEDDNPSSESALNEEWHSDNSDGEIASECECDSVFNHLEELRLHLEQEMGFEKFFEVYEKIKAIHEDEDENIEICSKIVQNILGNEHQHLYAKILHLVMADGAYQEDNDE

[7] = target: Cyclin-dependent kinase 7 (Homo sapiens, UniProt P50613); assay: Selectivity interaction (KinomeScan (DiscoverX)) EUB0000655a CDK7; details: at 10 µM
[8] = target: T2, Tyrosine-protein kinase receptor TYRO3 (Homo sapiens) (UniProt Q06418); assay: Selectivity interaction (KinomeScan (DiscoverX)) EUB0000655a TYRO3; details: at 10 µM
T2 sequence (whole entry): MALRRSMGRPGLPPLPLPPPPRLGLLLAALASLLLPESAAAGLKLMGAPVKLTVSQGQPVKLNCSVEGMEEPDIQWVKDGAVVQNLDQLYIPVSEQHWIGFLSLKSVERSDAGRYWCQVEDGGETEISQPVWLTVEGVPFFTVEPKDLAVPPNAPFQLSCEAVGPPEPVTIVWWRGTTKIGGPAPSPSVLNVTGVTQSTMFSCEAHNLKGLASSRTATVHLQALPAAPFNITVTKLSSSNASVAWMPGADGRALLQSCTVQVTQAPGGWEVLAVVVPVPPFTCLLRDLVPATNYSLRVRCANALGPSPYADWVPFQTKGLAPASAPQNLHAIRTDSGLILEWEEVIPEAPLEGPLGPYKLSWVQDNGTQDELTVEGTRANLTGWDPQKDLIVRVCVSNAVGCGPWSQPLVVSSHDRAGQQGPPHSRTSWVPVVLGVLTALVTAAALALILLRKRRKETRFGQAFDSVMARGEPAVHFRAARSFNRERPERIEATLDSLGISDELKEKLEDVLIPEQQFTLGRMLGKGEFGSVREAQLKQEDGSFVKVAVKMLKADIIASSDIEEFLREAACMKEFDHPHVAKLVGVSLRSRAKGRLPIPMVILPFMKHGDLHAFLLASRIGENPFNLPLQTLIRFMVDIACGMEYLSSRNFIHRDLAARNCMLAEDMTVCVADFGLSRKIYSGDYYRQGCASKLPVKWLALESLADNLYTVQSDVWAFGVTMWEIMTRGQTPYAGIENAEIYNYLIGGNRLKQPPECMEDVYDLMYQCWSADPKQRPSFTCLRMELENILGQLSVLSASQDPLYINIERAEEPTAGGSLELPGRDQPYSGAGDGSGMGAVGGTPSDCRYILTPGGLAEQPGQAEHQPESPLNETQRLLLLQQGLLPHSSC

[9] = target: Histone-lysine N-methyltransferase SETDB1 (Homo sapiens) (UniProt Q15047); details: at 1 µM

Sequence of ALK tyrosine kinase receptor (Q9UM73 19-1620 limits assumed): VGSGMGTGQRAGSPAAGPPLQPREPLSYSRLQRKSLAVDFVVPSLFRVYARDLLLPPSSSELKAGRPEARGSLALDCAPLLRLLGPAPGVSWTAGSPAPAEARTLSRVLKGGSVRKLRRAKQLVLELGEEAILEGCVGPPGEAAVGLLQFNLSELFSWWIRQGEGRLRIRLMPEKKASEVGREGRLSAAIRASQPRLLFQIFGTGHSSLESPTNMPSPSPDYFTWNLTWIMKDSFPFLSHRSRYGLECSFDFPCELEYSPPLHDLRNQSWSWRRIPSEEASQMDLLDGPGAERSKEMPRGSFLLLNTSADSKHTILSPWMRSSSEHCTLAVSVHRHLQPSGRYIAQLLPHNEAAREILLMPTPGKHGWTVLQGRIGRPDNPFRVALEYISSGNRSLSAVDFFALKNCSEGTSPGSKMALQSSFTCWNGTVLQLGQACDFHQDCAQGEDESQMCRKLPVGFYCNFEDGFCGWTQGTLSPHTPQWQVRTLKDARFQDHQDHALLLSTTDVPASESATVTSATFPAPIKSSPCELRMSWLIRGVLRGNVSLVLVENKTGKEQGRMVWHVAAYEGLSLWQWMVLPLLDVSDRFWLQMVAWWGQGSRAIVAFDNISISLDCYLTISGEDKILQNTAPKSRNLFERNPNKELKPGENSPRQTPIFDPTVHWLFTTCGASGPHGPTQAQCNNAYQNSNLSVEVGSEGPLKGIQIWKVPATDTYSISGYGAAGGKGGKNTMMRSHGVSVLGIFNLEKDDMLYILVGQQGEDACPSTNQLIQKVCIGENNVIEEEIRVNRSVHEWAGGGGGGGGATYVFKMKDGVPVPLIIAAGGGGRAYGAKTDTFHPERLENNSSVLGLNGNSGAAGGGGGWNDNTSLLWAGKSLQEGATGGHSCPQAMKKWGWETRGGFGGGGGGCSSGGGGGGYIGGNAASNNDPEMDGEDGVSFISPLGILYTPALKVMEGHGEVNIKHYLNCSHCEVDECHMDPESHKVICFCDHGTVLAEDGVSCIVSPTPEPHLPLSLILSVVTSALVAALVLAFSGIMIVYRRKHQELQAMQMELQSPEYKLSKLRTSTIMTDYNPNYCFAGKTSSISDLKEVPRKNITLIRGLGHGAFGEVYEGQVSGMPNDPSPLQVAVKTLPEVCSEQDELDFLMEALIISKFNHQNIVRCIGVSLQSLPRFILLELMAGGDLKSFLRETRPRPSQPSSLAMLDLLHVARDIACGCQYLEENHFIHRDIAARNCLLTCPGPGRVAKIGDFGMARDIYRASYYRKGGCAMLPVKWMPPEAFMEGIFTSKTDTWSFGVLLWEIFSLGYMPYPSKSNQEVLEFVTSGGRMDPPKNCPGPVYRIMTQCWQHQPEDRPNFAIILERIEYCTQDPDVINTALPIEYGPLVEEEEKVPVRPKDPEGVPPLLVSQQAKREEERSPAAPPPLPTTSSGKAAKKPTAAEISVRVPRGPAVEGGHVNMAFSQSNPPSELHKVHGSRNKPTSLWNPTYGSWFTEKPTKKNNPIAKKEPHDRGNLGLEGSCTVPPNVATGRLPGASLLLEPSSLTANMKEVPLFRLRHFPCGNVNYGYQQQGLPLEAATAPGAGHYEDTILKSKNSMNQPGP
Sequence of SRSF protein kinase 1 (Q96SB4 whole entry): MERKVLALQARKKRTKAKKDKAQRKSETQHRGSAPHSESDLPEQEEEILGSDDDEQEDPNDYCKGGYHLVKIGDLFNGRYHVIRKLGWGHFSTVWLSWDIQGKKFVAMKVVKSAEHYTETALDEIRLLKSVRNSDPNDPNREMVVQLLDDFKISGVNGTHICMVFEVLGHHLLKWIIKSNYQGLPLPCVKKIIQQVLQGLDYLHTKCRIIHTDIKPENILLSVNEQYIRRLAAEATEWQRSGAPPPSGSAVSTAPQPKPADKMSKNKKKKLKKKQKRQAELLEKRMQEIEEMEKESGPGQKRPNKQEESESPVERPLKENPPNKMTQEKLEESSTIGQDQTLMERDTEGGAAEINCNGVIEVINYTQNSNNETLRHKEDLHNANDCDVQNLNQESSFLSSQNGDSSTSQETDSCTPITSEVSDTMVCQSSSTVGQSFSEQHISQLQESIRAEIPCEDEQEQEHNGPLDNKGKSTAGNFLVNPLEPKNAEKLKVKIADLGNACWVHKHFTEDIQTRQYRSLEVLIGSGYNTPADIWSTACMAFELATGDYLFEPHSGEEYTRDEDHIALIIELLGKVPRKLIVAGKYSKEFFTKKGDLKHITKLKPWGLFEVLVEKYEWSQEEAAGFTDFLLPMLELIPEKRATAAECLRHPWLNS
Sequence of Maternal embryonic leucine zipper kinase (Homo sapiens) (Q14680 whole entry, looked up): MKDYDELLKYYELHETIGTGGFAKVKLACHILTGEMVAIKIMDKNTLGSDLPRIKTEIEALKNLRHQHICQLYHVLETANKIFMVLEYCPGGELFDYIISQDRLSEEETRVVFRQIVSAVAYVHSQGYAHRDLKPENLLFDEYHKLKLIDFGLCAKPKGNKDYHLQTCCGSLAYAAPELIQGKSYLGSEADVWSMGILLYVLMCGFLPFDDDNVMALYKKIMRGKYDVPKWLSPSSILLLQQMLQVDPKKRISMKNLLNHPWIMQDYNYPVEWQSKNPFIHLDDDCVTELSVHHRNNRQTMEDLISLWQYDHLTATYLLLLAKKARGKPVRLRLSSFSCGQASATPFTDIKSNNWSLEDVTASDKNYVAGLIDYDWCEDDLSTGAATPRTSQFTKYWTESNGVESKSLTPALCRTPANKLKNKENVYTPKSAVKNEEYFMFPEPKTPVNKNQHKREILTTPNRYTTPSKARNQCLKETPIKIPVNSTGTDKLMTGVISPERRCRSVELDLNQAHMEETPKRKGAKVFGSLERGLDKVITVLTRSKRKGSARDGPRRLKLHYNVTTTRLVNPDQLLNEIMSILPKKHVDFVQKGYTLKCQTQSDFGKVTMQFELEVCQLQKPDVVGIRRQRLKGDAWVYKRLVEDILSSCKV
Sequence of Serine/threonine-protein kinase/endoribonuclease IRE1 (Homo sapiens) (O75460 19-977 limits assumed): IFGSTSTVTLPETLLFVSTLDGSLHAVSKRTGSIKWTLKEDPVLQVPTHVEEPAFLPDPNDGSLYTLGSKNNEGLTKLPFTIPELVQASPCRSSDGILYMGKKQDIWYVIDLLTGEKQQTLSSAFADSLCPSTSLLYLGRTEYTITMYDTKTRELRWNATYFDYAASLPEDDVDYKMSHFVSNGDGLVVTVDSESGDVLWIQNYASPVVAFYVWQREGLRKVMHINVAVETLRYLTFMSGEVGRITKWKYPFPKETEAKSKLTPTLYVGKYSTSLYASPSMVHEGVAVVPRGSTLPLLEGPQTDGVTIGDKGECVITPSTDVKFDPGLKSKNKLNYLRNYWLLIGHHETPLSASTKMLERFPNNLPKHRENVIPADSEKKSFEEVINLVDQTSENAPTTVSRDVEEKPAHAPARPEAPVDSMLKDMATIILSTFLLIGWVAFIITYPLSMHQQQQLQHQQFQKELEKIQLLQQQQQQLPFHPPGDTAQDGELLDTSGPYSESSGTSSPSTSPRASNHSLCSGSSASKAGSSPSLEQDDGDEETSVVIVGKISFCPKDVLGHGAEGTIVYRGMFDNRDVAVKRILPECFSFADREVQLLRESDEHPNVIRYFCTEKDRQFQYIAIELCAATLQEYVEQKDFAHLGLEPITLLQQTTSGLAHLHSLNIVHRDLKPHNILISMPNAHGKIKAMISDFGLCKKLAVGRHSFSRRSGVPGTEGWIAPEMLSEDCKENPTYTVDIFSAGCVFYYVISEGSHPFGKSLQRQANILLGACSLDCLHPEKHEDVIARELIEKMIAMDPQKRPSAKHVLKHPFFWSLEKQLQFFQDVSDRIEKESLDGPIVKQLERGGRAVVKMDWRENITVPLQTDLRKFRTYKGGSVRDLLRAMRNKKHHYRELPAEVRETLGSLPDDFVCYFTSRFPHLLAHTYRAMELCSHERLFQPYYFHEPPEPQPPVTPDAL
Sequence of Cyclin-dependent kinase 7 (P50613 whole entry): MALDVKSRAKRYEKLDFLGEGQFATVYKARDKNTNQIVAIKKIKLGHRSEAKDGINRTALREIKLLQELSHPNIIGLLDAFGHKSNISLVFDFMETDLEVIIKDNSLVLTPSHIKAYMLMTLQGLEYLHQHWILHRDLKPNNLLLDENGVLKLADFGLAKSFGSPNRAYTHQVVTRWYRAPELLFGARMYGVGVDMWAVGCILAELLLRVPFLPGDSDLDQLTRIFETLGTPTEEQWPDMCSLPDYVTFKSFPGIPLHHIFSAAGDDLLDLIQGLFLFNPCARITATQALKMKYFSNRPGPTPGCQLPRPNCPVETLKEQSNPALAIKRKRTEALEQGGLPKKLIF
Sequence of Cyclin-dependent kinase 16 (Homo sapiens) (Q00536 whole entry): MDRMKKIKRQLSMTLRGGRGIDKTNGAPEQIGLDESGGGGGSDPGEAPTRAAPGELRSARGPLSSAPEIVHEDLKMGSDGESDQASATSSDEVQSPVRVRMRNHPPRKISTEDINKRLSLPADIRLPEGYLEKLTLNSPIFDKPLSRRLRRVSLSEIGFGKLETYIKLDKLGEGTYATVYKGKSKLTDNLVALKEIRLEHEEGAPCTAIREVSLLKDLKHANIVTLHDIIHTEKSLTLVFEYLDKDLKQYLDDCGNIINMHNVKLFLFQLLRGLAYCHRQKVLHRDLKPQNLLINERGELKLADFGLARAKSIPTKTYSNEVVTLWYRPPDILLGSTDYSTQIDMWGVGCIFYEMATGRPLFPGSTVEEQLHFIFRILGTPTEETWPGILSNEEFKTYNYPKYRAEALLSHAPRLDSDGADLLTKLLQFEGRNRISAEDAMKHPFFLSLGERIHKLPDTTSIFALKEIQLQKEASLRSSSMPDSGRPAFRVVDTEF

SMILES: CNC(=O)Nc1ccc(-c2nc(N3CC4CCC(C3)O4)c3cnn(C4CCC5(CC4)OCCO5)c3n2)cc1
% of control [1]: 93%

SMILES: CC(C)(O)[C@H](F)CN1Cc2cc(NC(=O)c3cnn4cccnc34)c(N3CCOCC3)cc2C1=O
dTM [5]: 1.1 K

SMILES: CN(C)CCOc1ccc(-c2nc(-c3ccncc3)c(-c3ccc4c(c3)CC/C4=N\O)[nH]2)cc1
% of control [6]: 87% | % of control [7]: 93% | % of control [8]: 100%

Now from value to compound:

% of inhibition [2]: 0.5% | % of inhibition [3]: 25.9%
SMILES: CC[C@@H]1[C@H](F)C(=O)N[C@@H]1COc1nccc2cc(C(N)=O)c(OC)cc12 [ZIMLOVISERTIB]

% of inhibition [4]: 39%
SMILES: CCc1cc(Nc2nccc(-c3c(-c4ccc(OC)c(C(=O)Nc5c(F)cccc5F)c4)nc4ccccn34)n2)c(OC)cc1N1CCC(N2CCN(S(C)(=O)=O)CC2)CC1

% activity [9]: > 90%
SMILES: CNCCN1CCC(c2cc(CN(C)C(=O)c3cccc(Oc4ccccc4)c3)ccn2)CC1
